This note sets out measurements from article PMC7320011, “Rationally designed ruthenium complexes for 1- and 2-photon photodynamic therapy” (Nature Communications, 2020).

A short description of series [1]: Singlet oxygen quantum yield, indirect evaluation (1O2 scavenger absorbance). The class given is physicochemical. The procedure:
Indirect evaluation: measurement in acetonitrile: the sample was prepared in an air-saturated acetonitrile solution with an absorption of 0.2 at the irradiation wavelength, N,N-dimethyl-4-nitrosoaniline aniline (RNO, 24 µM) and imidazole (12 mM). Measurement in PBS buffer: the sample was prepared in an air-saturated PBS solution containing the complex with an absorption of 0.2 at the irradiation wavelength, N,N-dimethyl-4-nitrosoaniline aniline (RNO, 20 µM) and histidine (10 mM). The samples were irradiated for various time points with an Atlas Photonics LUMOS BIO irradiator. The absorption of the samples was constantly monitored with a SpectraMax M2 Microplate Reader (Molecular Devices). The difference in absorption (A0 − A) at 420 nm for the measurement in acetonitrile or at 440 nm for the measurement in PBS was determined. The difference in absorption was then plotted against the irradiation times and the slope of the linear regression calculated. The absorption of the sample was corrected with an absorption correction factor. The singlet oxygen quantum yields were calculated using the same formulas as used for the direct evaluation.

The next series can be described thus: Photobleaching by NMR. The class given is physicochemical. The conditions noted are these: 450 nm, 10 min, 13.2 J cm^−2, CD3CN. How it is done: The sample was dissolved in air saturated 0.7 mL CD3CN and stored in a NMR tube in the dark. A ^1H-NMR spectrum was measured directly after preparation to ensure the identity of the sample. The sample was then irradiated at 450 nm with an Atlas Photonics LUMOS BIO irradiator (10 min, 13.2 J cm^−2). Following this treatment, a ^1H-NMR spectrum was again measured.

Series [2] in a line: Distribution coefficient (shake-flask, octanol/PBS). The class given is physicochemical. The conditions noted are these: ICP-MS. How it is done: Using the “shake-flask” method, the distribution coefficient between the PBS and octanol phase of the sample was determined. The PBS and octanol phases were previously saturated in each other. The sample was dissolved in the phase, which is dissolving best the compound. This solution was added to an equal volume of the other phase and mixed at 190 rpm overnight with a sample mixer. Following this, the solutions were equilibrated for 4 h. The phases were carefully separated from each other. The amount of the sample in each phase was determined by ICP-MS. The evaluation was repeated three times and the ratio between the organic and aqueous phase determined.

Series [3] concerns noncancerous retinal pigment epithelium (RPE-1) cells.

For the compound `CN(C)c1ccc(/C=C/c2ccnc(-c3cc(/C=C/c4ccc(N(C)C)cc4)ccn3)c2)cc1.CN(C)c1ccc(/C=C/c2ccnc(-c3cc(/C=C/c4ccc(N(C)C)cc4)ccn3)c2)cc1.CN(C)c1ccc(/C=C/c2ccnc(-c3cc(/C=C/c4ccc(N(C)C)cc4)ccn3)c2)cc1.F[P-](F)(F)(F)(F)F.F[P-](F)(F)(F)(F)F.[Ru+2]` [compound 2, [Ru((E,E′)-4,4′-Bis[p-(N,N-dimethylamino)styryl]-2,2′-bipyridine)3][PF6]2], the “Singlet oxygen quantum yield, Indirect 450 nm CH3CN” value in series [1] (450 nm, CH3CN) turned out to be 25%. The “Singlet oxygen quantum yield, Indirect 450 nm PBS” value in series [1] (450 nm, PBS) amounted to 3%. For the same compound, in series [1] (540 nm, CH3CN), the “Singlet oxygen quantum yield, Indirect 540 nm CH3CN” value was determined as 16%. For the same compound, the “Singlet oxygen quantum yield, Indirect 540 nm PBS” value in series [1] (540 nm, PBS) stood at 1%. In addition, the “effect of irradiation on the molecular structure (NMR)” value in the series “Photobleaching by NMR” is listed as “decomposition of the compound”. In addition, the “logD (octanol/PBS)” value in series [2] was “+2.7 ± 0.4”. In series [3], the IC50 is 38.4 µM.

By IC50 is commonly meant the concentration needed to halve the response being measured. A high value points to a need for much substance.
